Experimental data from patent US12398127B2, “Thyroid hormone receptor beta agonist compounds” (Terns Pharmaceuticals, Inc., priority 2019, dated 2025).

Experiments:
TR beta-LBD = target: T1, TR beta-LBD (Homo sapiens, UniProt P10828); experiment: LanthaScreen TR-FRET Thyroid Receptor beta Coactivator Assay; format: biochemical; conditions: for THRβ-Selectivity: THR beta over THR alpha, derived from T3-selectivity normalized data; for EC50: TR-FRET coactivator recruitment, 2 hour incubation at room temperature, run in duplicate multiple times, average data reported, read-out: EC50 THRβ-FRET
T1 construct: TR alpha-LBD (0.4 nM final concentration) or TR beta-LBD (1.0 nM final concentration) was added; purchased ThermoFisher
T1 sequence (P10828 217-461 limits assumed): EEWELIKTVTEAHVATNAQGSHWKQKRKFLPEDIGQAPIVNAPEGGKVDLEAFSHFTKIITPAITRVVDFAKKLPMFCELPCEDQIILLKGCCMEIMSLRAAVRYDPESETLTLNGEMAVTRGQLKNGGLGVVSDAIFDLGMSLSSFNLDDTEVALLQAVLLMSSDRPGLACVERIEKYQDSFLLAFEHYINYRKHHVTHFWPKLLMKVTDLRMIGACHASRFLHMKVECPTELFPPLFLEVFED
Procedure: (§1) LanthaScreen™ TR-FRET Thyroid Receptor alpha Coactivator Assay kit (ThermoFisher) and LanthaScreen™ TR-FRET Thyroid Receptor beta Coactivator Assay kit (ThermoFisher) were used for agonist compound screening. Compounds in DMSO were diluted using ECHO Liquid Handler (Labcyte Inc.) into 384 plates in 10-point 3-fold series in duplicate (5 micro M final top concentration). Buffer C (ThermoFisher) was added to each well before the 4×mixture of fluorescein-SCR2-2 coactivator (200 nM final concentration), Terbium-labeled anti-GST antibody (2 nM final concentration), and TR alpha-LBD (0.4 nM final concentration) or TR beta-LBD (1.0 nM final concentration) was added. After 2 hour incubation at room temperature in dark, the TR-FRET signal was measured on an EnVision plate reader (PerkinElmer) with excitation at 340 nm and dual emission readout at 495 and 520 nm with the delay time of 100 micro second and the integration time of 200 micro second. The ratio of emission signal at 520 and at 495 was used to calculate EC50 using GraphPad Prism (GraphPad Software). In every batch of compound screening, T3 (L-3,3′,5-Triiodothyronine sodium salt, >95%) (Calbiochem) was used as reference compound. The EC50 of T3 measured were within 3-fold of the reference value provided by the assay kit manufacturer (ThermoFisher Scientific). The Z′ factors measured in every batch of screening using T3 as high percent effect (HPE) control and 0.5% DMSO as zero percent effect (ZPE) control were in the range of 0.5 to 0.8. Compounds' THR-beta selectivity values are derived from T3-selectivity normalized data.

TR alpha-LBD = target: T2, TR alpha-LBD (Homo sapiens, UniProt P10827); experiment: LanthaScreen TR-FRET Thyroid Receptor alpha Coactivator Assay; format: biochemical; conditions: TR-FRET coactivator recruitment, 2 hour incubation at room temperature; run in duplicate multiple times, average data reported; read-out: EC50 THRα-FRET
T2 construct: TR alpha-LBD (0.4 nM final concentration) or TR beta-LBD (1.0 nM final concentration) was added; purchased ThermoFisher
Procedure: as §1, with “The EC50 of T3 measured were within 3-fold of the reference value provided by the assay kit manufacturer (ThermoFisher Scientific).” left out, “Compounds' THR-beta selectivity values are derived from T3-selectivity normalized data.” left out

T2 sequence (P10827 163-410 isoform P10827-2 limits assumed, other chains not shown): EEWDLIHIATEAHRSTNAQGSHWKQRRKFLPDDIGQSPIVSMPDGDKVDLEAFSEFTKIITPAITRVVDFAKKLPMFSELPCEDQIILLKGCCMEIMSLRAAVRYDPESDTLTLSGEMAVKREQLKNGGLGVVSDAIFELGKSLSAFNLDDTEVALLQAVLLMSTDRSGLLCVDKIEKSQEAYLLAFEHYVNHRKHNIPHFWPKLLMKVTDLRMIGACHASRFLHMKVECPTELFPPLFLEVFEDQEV

| THRβ-Selectivity (TR beta-LBD) | EC50 (TR beta-LBD) | EC50 (TR alpha-LBD) | SMILES |
| --- | --- | --- | --- |
| 57.5 | 33.7 nM | 492 nM | O=C(Nc1cc(Cl)c(Oc2n[nH]c(=O)c3ccccc23)c(Cl)c1)c1noc(=O)[nH]1 [Example 1, N-(3,5-dichloro-4-((4-oxo-3,4-dihydrophthalazin-1-yl)oxy)phenyl)-5-oxo-4,5-dihydro-1,2,4-oxadiazole-3-carboxamide] |
| 10.9 | 5.5 nM | 40.5 nM | Cn1nc(Oc2c(Cl)cc(NC(=O)c3noc(=O)[nH]3)cc2Cl)c2ccccc2c1=O [Example 2, N-(3,5-dichloro-4-((3-methyl-4-oxo-3,4-dihydrophthalazin-1-yl)oxy)phenyl)-5-oxo-4,5-dihydro-1,2,4-oxadiazole-3-carboxamide] |
